The source of these data is US4920127A, “Substituted indoles and their use as 5-HT3 receptor antagonists” (Beecham Group p.l.c., priority 1987, dated 1990).

Each structure is given as a SMILES string. Where a name gives a salt, the structure may show the parent alone.

The subject of this experiment is von Bezold-Jarisch reflex evoked by 5-HT. Briefly: Antagonism of the von Bezold-Jarisch reflex evoked by 5-HT in the anaesthetised rat. It is filed as in vivo. Conditions: iv, male rats, urethane anaesthesia, compounds intravenously, 5-HT usually 6 μg/kg i.v., heart rate changes, read-out: ED50 (concentration required to reduce the 5HT-evoked response to 50% of the control response). The procedure: Antagonism of the von Bezold-Jarisch reflex
The compounds were evaluated for antagonism of the von Bezold-Jarisch reflex evoked by 5-HT in the anaesthetised rat according to the following method:
Male rats, 250-350 g, were anaesthetised with urethane (1.25 g/kg intraperitoneally) and blood pressure and heart rate recorded as described by Fozard J. R. et al., J. Cardiovasc. Pharmacol. 2, 229-245 (1980). A submaximal dose of 5-HT (usually 6 μg/kg) was given repeatedly by the intravenous route and changes in heart rate quantified. Compounds were given intravenously and the concentration required to reduce the 5HT-evoked response to 50% of the control response (ED50) was then determined.
As for `CN1[C@@H]2CC[C@H]1C[C@@H](NC(=O)N1CC3(CCCCC3)c3ccccc31)C2` [Compound 1], the ED50 was 3.6 µg/kg.

As to `CN1[C@@H]2CC[C@H]1C[C@@H](NC(=O)N1CC3(CC3)c3ccccc31)C2` [Compound 6], the ED50 was 3.5 µg/kg.

As to `O=C(NC1CN2CCC1CC2)N1CC(c2ccccc2)c2ccccc21` (stereo not shown) [Compound 8, N-(1-Azabicyclo[2.2.2]oct-3-yl)2,3-dihydro-3-phenylindol-1-yl urea hydrochloride], the ED50 was determined as 1.2 µg/kg.

As to `CN1[C@@H]2CC[C@H]1C[C@@H](NC(=O)N1CC3(CCCC3)c3ccccc31)C2` [Compound 10], the ED50 worked out at 1.8 µg/kg.
